biological target: T1, HMG-CoA reductase (Rattus norvegicus, UniProt P51639); test: intrinsic HMG-CoA reductase inhibition, in vitro protocol of J. Med. Chem., 28, p. 347-358 (1985); type: biochemical; conditions: mevastatin assigned a value of 100; IC50 of test compound compared with that of mevastatin determined simultaneously
T1 construct: from tissue
T1 sequence (P51639 1-887): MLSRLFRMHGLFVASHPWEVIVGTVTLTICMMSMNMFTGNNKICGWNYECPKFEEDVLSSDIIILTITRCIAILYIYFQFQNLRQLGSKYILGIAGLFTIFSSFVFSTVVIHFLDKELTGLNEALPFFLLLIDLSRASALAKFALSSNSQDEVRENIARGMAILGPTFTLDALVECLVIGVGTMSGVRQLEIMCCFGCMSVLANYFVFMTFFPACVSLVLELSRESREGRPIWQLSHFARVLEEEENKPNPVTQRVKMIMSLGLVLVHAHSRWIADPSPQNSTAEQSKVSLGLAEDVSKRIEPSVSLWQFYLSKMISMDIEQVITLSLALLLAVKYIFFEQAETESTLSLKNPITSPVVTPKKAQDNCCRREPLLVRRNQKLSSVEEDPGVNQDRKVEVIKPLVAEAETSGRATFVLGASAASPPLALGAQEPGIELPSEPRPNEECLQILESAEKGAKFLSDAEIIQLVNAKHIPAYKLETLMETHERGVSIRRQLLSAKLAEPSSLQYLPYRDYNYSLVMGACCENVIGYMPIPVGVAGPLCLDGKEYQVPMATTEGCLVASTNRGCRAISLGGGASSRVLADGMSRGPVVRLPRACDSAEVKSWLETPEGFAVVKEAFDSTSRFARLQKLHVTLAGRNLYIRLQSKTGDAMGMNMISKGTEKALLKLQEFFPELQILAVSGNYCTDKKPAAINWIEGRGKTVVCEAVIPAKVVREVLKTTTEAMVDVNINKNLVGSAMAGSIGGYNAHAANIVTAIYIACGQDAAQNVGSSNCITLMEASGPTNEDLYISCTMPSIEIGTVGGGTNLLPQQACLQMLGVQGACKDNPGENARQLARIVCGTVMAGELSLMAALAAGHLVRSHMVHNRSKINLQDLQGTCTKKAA
Protocol: The intrinsic HMG-CoA reductase inhibition activity of the claimed compounds is measured in the in vitro protocol published in J. Med. Chem., 28, p. 347-358 (1985). […] Tabulated below for a number of the claimed compounds are relative potencies which are representative of the intrinsic HMG-CoA reductase inhibitory activities of the claimed compounds.

Row | Relative Potency | Compound
1 | 67 | Cc1ccc(C)c(C(=O)O[C@H]2C[C@@H](C)C=C3C=C[C@H](C)[C@H](CC[C@@H]4C[C@@H](O)CC(=O)O4)[C@H]32)c1
2 | 173 | 6(R)-[2-[8(S)-(2-isopropylbenzoyloxy)-2(S),6(R) -dimethyl-1,2,6,7,8,8a(R)-hexahydronaphthyl-1(S)]ethyl-4(R)-hydroxy-3,4,5,6-tetrahydro-2H-pyran-2-one
3 | 67 | 6(R)-[2-[8(S)-(2-methylbenzoyloxy) -2(S),6(R) -dimethyl-1,2,6,7,8,8a(R) -hexahydronaphthyl-1(S)]ethyl]-4(R)-hydroxy -3,4,5,6-tetrahydro-2H-pyran-2-one
4 | 54 | 6(R)-[2-[8(S)-(2-methylthiobenzoyloxy)-2(S),6(R)-dimethyl-1,2,6,7,8,8a(R)- hexahydronaphthyl-1(S)]ethyl-4(R)-hydroxy-3,4,5,6-tetrahydro-2H-pyran-2-one
5 | 87 | 6(R)-[2-[8(S)-(2-trifluormethyl-benzoyloxy)-2(S),6(R)-dimethyl-1,2,6,7,8,8a(R)-hexa-hydronaphthyl-1(S)]ethyl]-4(R)-hydroxy-3,4,5,6-tetrahydro-2H-pyran-2-one
6 | 100 | 6(R)-[2-[(8(S)-(2-chlorobenzoyloxy)-2-(S),6(R)-dimethyl-1,2,6,7,8,8a(R)-hexahydronaphthyl-1-(S)]ethyl]-4(R)-hydroxy-3,4,5,6-tetahydro-2H pyran-2-one

— US4946864A, “Novel HMG-CoA reductase inhibitors” (Merck & Co., Inc., priority 1988, dated 1990)
